In PMC12155096 (International Journal of Molecular Sciences, 2025):
Structures can show the parent of a compound that is named as a salt. Where two headings read alike, the source gives them in different places.

What was measured:
[1] = target: T1, human CYP2D6 (Homo sapiens, UniProt P10635); assay: biochemical; conditions: for AC50: CYP2D6 AC50 (half-maximal activity concentration)
[2] = target: T2, CYP3A4 (Homo sapiens, UniProt P08684); assay: biochemical; conditions: for AC50: CYP3A4 AC50 (half-maximal activity concentration); for IC50: CYP3A4 IC50 (half-maximal inhibitory concentration)
[3] = target: Photinus pyralis (firefly) luciferase (Photinus pyralis, UniProt P08659); assay: biochemical; type: biochemical
[4] = target: T3, human CYP2C9 (Homo sapiens, UniProt P11712); assay: biochemical; conditions: for AC50: CYP2C9 AC50 (half-maximal activity concentration)
[5] = target: T4, human CYP1A2 (Homo sapiens, UniProt P05177); assay: biochemical; conditions: for AC50: CYP1A2 AC50 (half-maximal activity concentration)
T4 sequence (P05177 1-516): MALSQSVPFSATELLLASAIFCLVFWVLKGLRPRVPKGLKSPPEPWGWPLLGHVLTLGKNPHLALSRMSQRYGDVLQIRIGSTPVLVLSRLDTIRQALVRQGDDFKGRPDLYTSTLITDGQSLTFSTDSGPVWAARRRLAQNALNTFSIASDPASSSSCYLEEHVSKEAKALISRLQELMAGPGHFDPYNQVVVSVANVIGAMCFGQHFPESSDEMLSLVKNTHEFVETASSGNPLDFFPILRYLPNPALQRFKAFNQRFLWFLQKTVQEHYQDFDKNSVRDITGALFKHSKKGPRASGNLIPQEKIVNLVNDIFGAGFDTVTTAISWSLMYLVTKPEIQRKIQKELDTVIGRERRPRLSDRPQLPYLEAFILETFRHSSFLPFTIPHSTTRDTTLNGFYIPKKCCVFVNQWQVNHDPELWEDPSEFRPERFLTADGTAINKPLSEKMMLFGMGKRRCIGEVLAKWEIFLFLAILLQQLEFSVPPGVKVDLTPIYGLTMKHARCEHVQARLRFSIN

[6] = target: T5, human CYP2C19 (Homo sapiens, UniProt P33261); assay: biochemical; conditions: for AC50: CYP2C19 AC50 (half-maximal activity concentration)
[7] = target: T2, CYP3A4
[8] = target: T1, human CYP2D6; conditions: for CYP2D6 Efficacy (in parenthesis): human
[9] = target: T3, human CYP2C9
[10] = target: T5, human CYP2C19; conditions: for CYP2C19 Efficacy (in parenthesis): human
[11] = target: T4, human CYP1A2; conditions: for CYP1A2 Efficacy (in parenthesis): human
[12] = CYP2D6 IC50 (half-maximal inhibitory concentration)
[13] = CYP2C9 IC50 (half-maximal inhibitory concentration)
[14] = CYP1A2 IC50 (half-maximal inhibitory concentration)
[15] = CYP2C19 IC50 (half-maximal inhibitory concentration)

T2 sequence (P08684 whole entry): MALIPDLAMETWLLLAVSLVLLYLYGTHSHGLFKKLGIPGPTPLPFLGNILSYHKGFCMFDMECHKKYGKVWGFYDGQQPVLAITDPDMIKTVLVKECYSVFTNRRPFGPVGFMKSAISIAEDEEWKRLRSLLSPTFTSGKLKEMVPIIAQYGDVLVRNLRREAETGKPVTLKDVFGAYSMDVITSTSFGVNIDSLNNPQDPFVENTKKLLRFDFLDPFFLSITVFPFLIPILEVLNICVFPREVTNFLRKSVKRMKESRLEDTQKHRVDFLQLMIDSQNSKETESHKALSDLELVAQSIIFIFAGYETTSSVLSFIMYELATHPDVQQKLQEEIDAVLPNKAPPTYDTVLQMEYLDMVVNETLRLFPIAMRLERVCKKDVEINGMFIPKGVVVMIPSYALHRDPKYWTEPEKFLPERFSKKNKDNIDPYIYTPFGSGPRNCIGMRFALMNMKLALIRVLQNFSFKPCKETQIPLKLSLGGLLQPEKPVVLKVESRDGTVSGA
Sequence of Photinus pyralis (firefly) luciferase (P08659 whole entry): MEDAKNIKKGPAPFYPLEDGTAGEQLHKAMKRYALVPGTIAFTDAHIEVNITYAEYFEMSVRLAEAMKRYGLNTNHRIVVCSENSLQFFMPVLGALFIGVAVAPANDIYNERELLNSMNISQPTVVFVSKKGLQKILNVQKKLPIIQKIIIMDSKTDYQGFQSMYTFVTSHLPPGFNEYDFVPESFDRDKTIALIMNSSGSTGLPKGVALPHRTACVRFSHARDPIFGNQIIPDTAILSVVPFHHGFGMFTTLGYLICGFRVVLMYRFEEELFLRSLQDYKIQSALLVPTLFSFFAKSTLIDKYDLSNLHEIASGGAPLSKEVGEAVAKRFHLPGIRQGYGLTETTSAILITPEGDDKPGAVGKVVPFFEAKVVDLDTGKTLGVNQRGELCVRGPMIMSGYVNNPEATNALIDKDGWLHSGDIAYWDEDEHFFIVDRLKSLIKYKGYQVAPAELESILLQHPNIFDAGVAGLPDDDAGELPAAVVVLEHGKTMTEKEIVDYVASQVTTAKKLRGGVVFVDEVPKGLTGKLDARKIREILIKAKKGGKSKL
T3 sequence (P11712 whole entry): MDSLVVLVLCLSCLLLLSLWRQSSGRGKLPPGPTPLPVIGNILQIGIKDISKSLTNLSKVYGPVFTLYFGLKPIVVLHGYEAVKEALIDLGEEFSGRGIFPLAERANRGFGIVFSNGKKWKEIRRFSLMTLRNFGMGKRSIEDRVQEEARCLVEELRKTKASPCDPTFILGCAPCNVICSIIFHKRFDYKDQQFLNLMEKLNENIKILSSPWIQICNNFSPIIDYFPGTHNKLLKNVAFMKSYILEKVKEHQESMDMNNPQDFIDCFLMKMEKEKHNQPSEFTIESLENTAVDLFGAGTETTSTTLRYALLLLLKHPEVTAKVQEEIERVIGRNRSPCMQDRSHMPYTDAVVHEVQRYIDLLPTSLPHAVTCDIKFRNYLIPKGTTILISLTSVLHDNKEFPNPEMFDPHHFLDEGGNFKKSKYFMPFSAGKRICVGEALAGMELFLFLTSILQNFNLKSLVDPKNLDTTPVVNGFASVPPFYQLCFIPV
T1 sequence (P10635 whole entry): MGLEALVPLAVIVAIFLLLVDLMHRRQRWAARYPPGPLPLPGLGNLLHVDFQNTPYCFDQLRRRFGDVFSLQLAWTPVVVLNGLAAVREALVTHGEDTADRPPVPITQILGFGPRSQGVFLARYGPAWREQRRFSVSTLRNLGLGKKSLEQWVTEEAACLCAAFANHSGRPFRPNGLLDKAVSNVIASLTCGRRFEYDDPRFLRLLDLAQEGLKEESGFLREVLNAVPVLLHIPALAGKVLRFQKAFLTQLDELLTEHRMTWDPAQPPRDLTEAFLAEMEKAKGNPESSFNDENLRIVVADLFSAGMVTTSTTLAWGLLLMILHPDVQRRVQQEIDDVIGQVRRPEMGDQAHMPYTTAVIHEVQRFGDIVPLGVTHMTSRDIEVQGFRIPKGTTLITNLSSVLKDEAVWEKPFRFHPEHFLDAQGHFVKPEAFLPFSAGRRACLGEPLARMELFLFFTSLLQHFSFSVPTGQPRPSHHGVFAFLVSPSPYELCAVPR
T5 sequence (P33261 whole entry): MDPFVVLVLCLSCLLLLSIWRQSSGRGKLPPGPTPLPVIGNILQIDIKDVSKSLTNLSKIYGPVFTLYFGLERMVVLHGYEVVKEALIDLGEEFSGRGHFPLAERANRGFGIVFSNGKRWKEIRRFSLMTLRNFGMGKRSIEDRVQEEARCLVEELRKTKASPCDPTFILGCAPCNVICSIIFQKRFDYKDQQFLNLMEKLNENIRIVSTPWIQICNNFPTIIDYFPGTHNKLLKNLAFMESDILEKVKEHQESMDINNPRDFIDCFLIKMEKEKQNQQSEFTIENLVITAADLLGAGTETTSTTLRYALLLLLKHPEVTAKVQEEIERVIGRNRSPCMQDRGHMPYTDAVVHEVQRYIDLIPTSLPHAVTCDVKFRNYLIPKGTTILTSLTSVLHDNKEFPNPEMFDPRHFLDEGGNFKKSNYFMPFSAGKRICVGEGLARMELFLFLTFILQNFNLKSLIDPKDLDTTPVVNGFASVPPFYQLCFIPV

SMILES: Cc1ccc2c(c1N)C(=O)c1ccccc1C2=O [1-Amino-2-methylanthraquinone]
- AC50 [1]: 5.59 µM
- IC50 [1, 12]: 5.59 µM
- AC50 [2]: 0.32 µM
- IC50 [3]: 5.87 µM
- AC50 [4]: 3.36 µM
- IC50 [4, 13]: 3.36 µM
- AC50 [5]: 0.58 µM
- IC50 [5, 14]: 0.58 µM
- AC50 [6]: 5.66 µM
- IC50 [6, 15]: 5.66 µM
- CYP3A4 IC50 (half-maximal inhibitory concentration) [7]: 0.32 ± 0.14 (91 ± 19) µM

SMILES: COc1c2ccoc2cc2oc(=O)ccc12 [5-Methoxypsoralen]
- CYP2D6 Efficacy (in parenthesis) [8]: 0.1 ± 0.02 (11 ± 2) %
- IC50 [1, 12]: 0.1 µM
- IC50 [2]: 9.16 µM
- CYP2C9 Efficacy (in parenthesis) ([9]; human): 2.43 ± 0.16 (-105 ± 2) %
- Luciferase IC50 (half-maximal inhibitory concentration) [3]: Inactive
- IC50 [4, 13]: 2.43 µM
- IC50 [5, 14]: 0.28 µM
- IC50 [6, 15]: 10.3 µM
- CYP2C19 Efficacy (in parenthesis) [10]: 10.35 ± 3.33 (-151 ± 18) %
- CYP1A2 Efficacy (in parenthesis) [11]: 0.28 ± 0.03 (-96 ± 3) %
- CYP3A4 Efficacy (in parenthesis) [7]: 9.16 ± 1.5 (-71 ± 2) %

SMILES: CCN(CCCc1ccccc1)CCCc1ccccc1 [Alverine citrate]
- AC50 [1]: 0.87 µM
- IC50 ([1]; CYP2D6 IC50): 0.87 µM
- AC50 [2]: 14.4 µM
- CYP2C9 IC50 [9]: Inactive
- Luciferase IC50 [3]: Inactive
- AC50 [5]: 9.92 µM
- IC50 ([5]; CYP1A2 IC50): 9.92 µM
- AC50 [6]: 7.04 µM
- IC50 ([6]; CYP2C19 IC50): 7.04 µM
- CYP3A4 IC50 [7]: 14.43 ± 1.84 (65 ± 11) µM

SMILES: Clc1ccc(C2(Cn3cncn3)OCCO2)c(Cl)c1 [Azaconazole]
- CYP2D6 Efficacy (in parenthesis) [8]: 65.83 ± 4.46 (-77 ± 14) %
- IC50 [1, 12]: 65.8 µM
- IC50 [2]: 0.48 µM
- CYP2C9 Efficacy (in parenthesis) ([9]; human): 15.38 ± 2.12 (-103 ± 8) %
- Luciferase IC50 (half-maximal inhibitory concentration) [3]: Inactive
- IC50 [4, 13]: 15.4 µM
- IC50 [5, 14]: 33.1 µM
- IC50 [6, 15]: 2.14 µM
- CYP2C19 Efficacy (in parenthesis) [10]: 2.14 ± 0.96 (-148 ± 8) %
- CYP1A2 Efficacy (in parenthesis) [11]: 33.14 ± 4.22 (-89 ± 9) %
- CYP3A4 Efficacy (in parenthesis) [7]: 0.48 ± 0.03 (-62 ± 7) %

SMILES: CCOP(=S)(OCC)SCn1nnc2ccccc2c1=O [Azinphos-ethyl]
- CYP2D6 Efficacy (in parenthesis) [8]: 35.57 ± 0 (-87 ± 6) %
- IC50 [1]: 35.6 µM
- IC50 [2]: 1.87 µM
- CYP2C9 Efficacy (in parenthesis) ([9]; human): 0.57 ± 0.11 (-97 ± 0) %
- Luciferase IC50 (half-maximal inhibitory concentration) [3]: Inactive
- IC50 [4]: 0.57 µM
- IC50 [5, 14]: 28.6 µM
- IC50 [6, 15]: 0.32 µM
- CYP2C19 Efficacy (in parenthesis) [10]: 0.32 ± 0.06 (-141 ± 5) %
- CYP1A2 Efficacy (in parenthesis) [11]: 28.65 ± 6 (-88 ± 5) %
- CYP3A4 Efficacy (in parenthesis) [7]: 1.87 ± 0.34 (-77 ± 3) %

SMILES: CC(O)(c1ccc(Cl)cc1)c1ccc(Cl)cc1 [Chlorfenethol]
- AC50 [1]: 55.5 µM
- IC50 [1, 12]: 55.5 µM
- AC50 [2]: 11.8 µM
- Luciferase IC50 (half-maximal inhibitory concentration) [3]: Inactive
- AC50 [4]: 7.68 µM
- IC50 [4, 13]: 7.68 µM
- AC50 [5]: 30.6 µM
- IC50 [5, 14]: 30.6 µM
- AC50 [6]: 0.12 µM
- IC50 [6, 15]: 0.12 µM
- CYP3A4 IC50 (half-maximal inhibitory concentration) [7]: 11.76 ± 1.5 (55 ± 6) µM

SMILES: CCOP(=O)(OCC)OC(=CCl)c1ccc(Cl)cc1Cl [Chlorfenvinphos]
- IC50 [1]: 37 µM
- AC50 [1]: 37 µM
- AC50 [2]: 1.18 µM
- Luciferase IC50 (half-maximal inhibitory concentration) [3]: Inactive
- IC50 [4]: 31.9 µM
- AC50 [4]: 31.9 µM
- AC50 [5]: 6.58 µM
- IC50 [5, 14]: 6.58 µM
- AC50 [6]: 0.83 µM
- IC50 [6, 15]: 0.83 µM
- IC50 ([6]; IC50 CYP2C19 assay): 0.77 µM
- CYP3A4 IC50 (half-maximal inhibitory concentration) [7]: 1.18 ± 0.21 (70 ± 1) µM

SMILES: CCOC(=O)C(O)(c1ccc(Cl)cc1)c1ccc(Cl)cc1 [Chlorobenzilate]
- CYP2D6 AC50 (half-maximal activity concentration) [8]: Inconclusive inhibitor
- IC50 [1]: 46.2 µM
- AC50 [2]: 9.23 µM
- Luciferase IC50 (half-maximal inhibitory concentration) [3]: Inactive
- IC50 [4]: 7.68 µM
- AC50 [4]: 7.68 µM
- AC50 [5]: 44.5 µM
- IC50 [5, 14]: 44.5 µM
- AC50 [6]: 0.39 µM
- IC50 [6, 15]: 0.39 µM
- CYP3A4 IC50 (half-maximal inhibitory concentration) [7]: 9.23 ± 2.97 (118 ± 20) µM

SMILES: CN1CCc2cc(Cl)c(O)cc2[C@H]2c3ccccc3CC[C@@H]21 [Ecopipam]
- AC50 [1]: 0.01 µM
- IC50 ([1]; CYP2D6 IC50): 0.01 µM
- AC50 [2]: 1.89 µM
- CYP2C9 IC50 [9]: Inactive
- Luciferase IC50 [3]: Inactive
- CYP2C19 IC50 [10]: Inactive
- CYP1A2 IC50 [11]: Inactive
- CYP3A4 IC50 [7]: 1.89 ± 0.26 (95 ± 11) µM

SMILES: O=C1C(Cl)C(CCl)CN1c1cccc(C(F)(F)F)c1 (stereo not shown) [Flurochloridone]
- AC50 [1]: 35.9 µM
- IC50 [1, 12]: 35.9 µM
- IC50 [2]: 6.98 µM
- CYP2C9 IC50 (half-maximal inhibitory concentration) ([9]; human): 7.82 ± 1.95 (82 ± 14) µM
- Luciferase IC50 (half-maximal inhibitory concentration) [3]: Inactive
- AC50 [4]: 7.82 µM
- AC50 [5]: 1.04 µM
- IC50 [5, 14]: 1.04 µM
- AC50 [6]: 12.3 µM
- IC50 [6, 15]: 12.3 µM
- CYP3A4 Efficacy (in parenthesis) [7]: 6.98 ± 2.77 (42 ± 7) %

SMILES: CCCCN1CCCC[C@H]1C(=O)Nc1c(C)cccc1C [Levobupivacaine hydrochloride]
- CYP2D6 Efficacy (in parenthesis) [8]: 0.57 ± 0.04 (-109 ± 3) %
- IC50 [1, 12]: 0.57 µM
- IC50 [2]: 9.59 µM
- CYP2C9 IC50 (half-maximal inhibitory concentration) [9]: Inactive
- Luciferase IC50 (half-maximal inhibitory concentration) [3]: Inactive
- IC50 [5, 14]: 17.4 µM
- CYP2C19 IC50 (half-maximal inhibitory concentration) [10]: Inactive
- CYP1A2 Efficacy (in parenthesis) [11]: 17.38 ± 0 (-62 ± 5) %
- CYP3A4 Efficacy (in parenthesis) [7]: 9.59 ± 2.39 (-54 ± 7) %

SMILES: CC1(C)CCC(Cc2ccc(Cl)cc2)C1(O)Cn1cncn1 (stereo not shown) [Metconazole]
- CYP2D6 Efficacy (in parenthesis) [8]: 41.91 ± 7.54 (-75 ± 4) %
- IC50 [1, 12]: 41.9 µM
- IC50 [2]: 0.06 µM
- CYP2C9 Efficacy (in parenthesis) ([9]; human): 0.23 ± 0.11 (-96 ± 19) %
- Luciferase IC50 (half-maximal inhibitory concentration) [3]: Inactive
- IC50 [4, 13]: 0.23 µM
- IC50 [6, 15]: 0.17 µM
- CYP2C19 Efficacy (in parenthesis) [10]: 0.17 ± 0.05 (-148 ± 4) %
- CYP3A4 Efficacy (in parenthesis) [7]: 0.06 ± 0.04 (-85 ± 6) %

SMILES: ClC(c1ccccc1)(c1ccccc1)c1ccccc1 [Trityl chloride]
- CYP2D6 AC50 (half-maximal activity concentration) [8]: Inconclusive inhibitor
- IC50 [1, 12]: 62.1 µM
- AC50 [2]: 6.9 µM
- Luciferase IC50 (half-maximal inhibitory concentration) [3]: Inactive
- AC50 [4]: 1.48 µM
- IC50 [4, 13]: 1.48 µM
- IC50 [5, 14]: 75.3 µM
- AC50 [6]: 0.26 µM
- IC50 [6, 15]: 0.26 µM
- CYP1A2 AC50 (half-maximal activity concentration) [11]: Inconclusive inhibitor
- CYP3A4 IC50 (half-maximal inhibitory concentration) [7]: 6.9 ± 1.18 (56 ± 3) µM
